The source made the active and inactive calls. The rule behind the calls is not given here.
Tests used:
A549 [1] = test: Inhibition of TGF-beta1 induced epithelial-mesenchymal transition in human A549 cells assessed as reduction in CALD1 level AT 5 AND 10 uM incubated for 48 hrs by qRT-PCR method; assay type: functional, cell-based
A549 [2] = test: Inhibition of TGF-beta1 induced epithelial-mesenchymal transition in human A549 cells assessed as morphological changes at 5 to 10 uM preincubated for 2 hrs followed by TGF-beta1 addition; assay type: functional, cell-based
A549 [3] = test: Inhibition of TGF-beta1-induced matrix metalloproteinase-9 expression in human A549 cells at 5 to 10 uM preincubated for 2 hrs by Western blot method; assay type: functional, cell-based
A549 [4] = test: Inhibition of TGF-beta1-induced […] Snail promoter activity in human A549 cells at 5 to 10 uM preincubated for 2 hrs by dual luciferase reporter assay; assay type: functional, cell-based
A549 [5] = test: Inhibition of TGF-beta1 induced epithelial-mesenchymal transition in human A549 cells assessed as reduction in nuclear SMAD2 level preincubated for 2 hrs by Western blot method; assay type: functional, cell-based
A549 [6] = test: Inhibition of TGF-beta1 induced epithelial-mesenchymal transition in human A549 cells assessed as reduction in COL5A2 level AT 5 AND 10 uM incubated for 48 hrs by qRT-PCR method; assay type: functional, cell-based
A549 [7] = test: Inhibition of TGF-beta1 induced epithelial-mesenchymal transition in human A549 cells assessed as reduction in PAI1 level AT 5 AND 10 uM incubated for 48 hrs by qRT-PCR method; assay type: functional, cell-based
A549 [8] = test: Inhibition of TGF-beta1 stimulated invasion in human A549 cells at 5 to 10 uM incubated for 48 hrs by matrigel invasion assay; assay type: functional, cell-based
A549 [9] = test: Cytotoxicity against human A549 cells assessed as cell viability at 50 to 100 uM after 48 hrs by WST-8 staining based CCK8 assay; conditions: a549, 48 h
A549 [10] = test: Inhibition of TGF-beta1 induced epithelial-mesenchymal transition in human A549 cells assessed as reduction in SNAI2 level AT 5 AND 10 uM incubated for 48 hrs by qRT-PCR method; assay type: functional, cell-based
A549 [11] = test: Inhibition of TGF-beta1 response promoter transactivation mediated SMAD2 and SMAD3 phosphorylation in human A549 cells at 5 to 10 uM preincubated for 2 hrs by dual luciferase reporter assay; assay type: functional, cell-based
A549 [12] = test: Inhibition of TGF-beta1 induced epithelial-mesenchymal transition in human A549 cells assessed as reduction in nuclear phosphorylated SMAD3 level preincubated for 2 hrs by Western blot method; assay type: functional, cell-based
A549 [13] = test: Inhibition of TGF-beta1 induced epithelial-mesenchymal transition in human A549 cells assessed as reduction in phosphorylated SMAD2 level preincubated for 2 hrs followed by TGF-beta1 addition by Western blot method; assay type: functional, cell-based
A549 [14] = test: Inhibition of TGF-beta1 induced epithelial-mesenchymal transition in human A549 cells assessed as reduction in SPARC level AT 5 AND 10 uM incubated for 48 hrs by qRT-PCR method; assay type: functional, cell-based
A549 [15] = test: Inhibition of TGF-beta1 induced epithelial-mesenchymal transition in human A549 cells assessed as reduction in CDH2 level AT 5 AND 10 uM incubated for 48 hrs by qRT-PCR method; assay type: functional, cell-based
A549 [16] = test: Inhibition of TGF-beta1 induced cell migration in human A549 cells assessed as reduction in cell surface area incubated for 48 hrs by wound healing assay; assay type: functional, cell-based
A549 [17] = test: Inhibition of TGF-beta1 induced epithelial-mesenchymal transition in human A549 cells assessed as reduction in phosphorylated SMAD3 level preincubated for 2 hrs followed by TGF-beta1 addition by Western blot method; assay type: functional, cell-based
A549 [18] = test: Inhibition of TGF-beta1-induced downregulation of epithelial marker E-cadherin expression in human A549 cells at 5 to 10 uM preincubated for 2 hrs by Western blot method; assay type: functional, cell-based
A549 [19] = test: Inhibition of TGF-beta1 induced epithelial-mesenchymal transition in human A549 cells assessed as reduction in ITGA5 level AT 5 AND 10 uM incubated for 48 hrs by qRT-PCR method; assay type: functional, cell-based
A549 [20] = test: Inhibition of TGF-beta1-induced plasminogen activator inhibitor type 1 expression in human A549 cells assessed at 5 to 10 uM preincubated for 2 hrs by Western blot method; assay type: functional, cell-based
A549 [21] = test: Cytotoxicity against human A549 cells assessed as cell viability at 1 to 25 uM after 48 hrs by WST-8 staining based CCK8 assay; conditions: a549, 48 h
A549 [22] = test: Inhibition of TGF-beta1-induced upregulation of Snail protein expression in human A549 cells preincubated for 2 hrs by Western blot method; assay type: functional, cell-based
A549 [23] = test: Inhibition of TGF-beta1 induced epithelial-mesenchymal transition in human A549 cells assessed as reduction in nuclear phosphorylated SMAD2 level preincubated for 2 hrs by Western blot method; assay type: functional, cell-based
A549 [24] = test: Inhibition of TGF-beta1 induced epithelial-mesenchymal transition in human A549 cells assessed as reduction in SNAI1 level AT 5 AND 10 uM incubated for 48 hrs by qRT-PCR method; assay type: functional, cell-based
A549 [25] = test: Inhibition of TGF-beta1 induced epithelial-mesenchymal transition in human A549 cells assessed as reduction in nuclear SMAD3 level preincubated for 2 hrs by Western blot method; assay type: functional, cell-based
A549 [26] = test: Inhibition of TGF-beta1-induced upregulation of mesenchymal marker N-cadherin expression in human A549 cells at 5 to 10 uM preincubated for 2 hrs by Western blot method; assay type: functional, cell-based
A549 [27] = test: Inhibition of TGF-beta1 induced epithelial-mesenchymal transition in human A549 cells assessed as reduction in […] level AT 5 AND 10 uM incubated for 48 hrs by qRT-PCR method; assay type: functional, cell-based

## O=C(O[C@@H]1O[C@@H]2COC(=O)c3cc(O)c(O)c(O)c3-c3c(cc(O)c(O)c3O)C(=O)O[C@H]2[C@@H]2OC(=O)c3cc(O)c(O)c(O)c3-c3c(cc(O)c(O)c3O)C(=O)O[C@H]12)c1cc(O)c(O)c(Oc2c(O)c(O)c(O)c3c2C(=O)O[C@H]2[C@@H]4OC(=O)c5cc(O)c(O)c(O)c5-c5c(cc(O)c(O)c5O)C(=O)O[C@@H]4[C@@H](OC(=O)c4cc(O)c(O)c(O)c4)O[C@@H]2COC(=O)c2cc(O)c(O)c(O)c2-3)c1
A549 [1]
  inhibition: Active
A549 [2]
  inhibition: Active
A549 [3]
  inhibition: Active
A549 [4]
  inhibition: Active
A549 [5]
  inhibition: Dose-dependent effect
A549 [6]
  inhibition: Active
A549 [7]
  inhibition: Active
A549 [8]
  inhibition: Active
A549 [9]
  Activity: Toxic
A549 [10]
  inhibition: Active
A549 [11]
  inhibition: Active
A549 [12]
  inhibition: Dose-dependent effect
A549 [13]
  inhibition: Dose-dependent effect
A549 [14]
  inhibition: Active
A549 [15]
  inhibition: Active
A549 [16]
  inhibition: Dose-dependent effect
A549 [17]
  inhibition: Dose-dependent effect
A549 [18]
  inhibition: Active
A549 [19]
  inhibition: Active
A549 [20]
  inhibition: Dose-dependent effect
A549 [21]
  Activity: Non-toxic
A549 [22]
  inhibition: Dose-dependent effect
A549 [23]
  inhibition: Dose-dependent effect
A549 [24]
  inhibition: Active
A549 [25]
  inhibition: Dose-dependent effect
A549 [26]
  inhibition: Active
A549 [27]
  inhibition: Active
